Reference: US9358225B2, “Method for treating neurodegeneration using a p38MAPK inhibitor” (Bach Pharma, Inc., priority 2013, dated 2016)

Tested on: Atm−/− mice
Test: Modified rotarod behavioral test
Type: in vivo, mouse
Details: P90, after treatment, vs PBS-treated Atm−/− and Atm+/+
Excerpt: The Atm−/− mice were originally generated by Dr. C. Barlow (Barlow et al., 1996). They were purchased from the Jackson Laboratory (Bar Harbor, Me.). Offspring of Atm+/− breeders were genotyped using real-time polymerase chain reaction-based assays of mouse tail DNA. Atm mice (1-month old) were divided into 3 groups: PBS-treated Atm+/+ mice (n=10/group); PBS-treated Atm−/− mice (n=9/group); and SB203580 (4-[5-(4-Fluorophenyl)-2-[4-(methylsulphonyl)phenyl]-1H-imidazol-4-yl]pyridine) treated Atm−/− mice (n=10/group). Mice were intraperitoneally injected with either PBS or SB203580 (4-[5-(4-Fluorophenyl)-2-[4-(methylsulphonyl)phenyl]-1H-imidazol-4-yl]pyridine) (5 mg/kg body weight) at 2-day intervals for 2 months. Animals were sacrificed one day after the last administration. Animal care was in accordance with The University of Texas MD Anderson Cancer Center guidelines for animal experiments.
We have devised a modified version of the standardized rotarod protocol (Columbus Instruments, Columbus, Ohio). […] Following training, three trials of mouse motor coordination were assessed by measuring the time before falling off the rotarod moving at 25 rpm.
Each experiment, including behavioral test, body weight measure and qRT-PCR was repeated at least three times. The proportion of mRNA expression was analyzed from a series of tissue sections. […]

SMILES	rotarod performance (time before falling off at 25 rpm)
CC1(C)c2ccc(C(=O)O)cc2C(C)(C)N1[O] [CTMIO, 5-carboxy-1,1,3,3-tetramethylisoindolin-2-yloxyl]	stayed on the rod as long as did Atm+/+ mice
CC(=O)N[C@@H](CS)C(=O)O [NAC, N-acetyl-L-cysteine]	stayed on the rod as long as did Atm+/+ mice
